Data published in US20230146455A1, “TREATMENT OF INFLAMMATORY DISEASES WITH PEPTIDES AND PHARMACEUTICAL COMPOSITIONS” (Yuyu Pharma, Inc., priority 2020, published 2023).
Values joined by “and” are separate entries in the source; they are usually repeats but may differ in a detail not shown here. Equal values may be shown once. Where a SMILES comes first, the peptide text is derived from it. [ ]: non-standard residue; d: D form. Hyp = O=C(O)[C@@H]1C[C@@H](O)CN1

Tested on: Fas Ligand
Experiment: Example 9 Luminex, LPS hPBMCs: Fas Ligand
Type: cell-based, human
Conditions: for Fas Ligand Concentration / Fas Ligand conc/live cell / MFI, bead Fas Ligand: single replicates
Procedure: Treatment Human PBMCs were pretreated with YY-101, YDE-011 and YDE-043 or reference compound; Xiidra® at various concentration (ranging from 1 nM to 100 uM) for 2 h before stimulation. An equal volume of 0.5% DMSO was used as a vehicle control. Then, the cells were treated with LPS at 5 ug/ml. The supernatants from treated cells were harvested at 24 h and placed in a 96 well for Luminex cytokine & chemokine profiling using a Luminex 200 multiplex assay (Luminex; R&D system, USA).
The main study arm with triplicate wells per group in a 24-well plate: • 1. Blank • 2. PBMC: 0.5% DMSO • 3. PBMC+LPS (5 ug/ml) • 4. PBMC+YY-101 100 uM • 5. PBMC+YY-101 10 uM • 6. PBMC+YY-101 1 uM • 7. PBMC+YY-101 0.1 uM • 8. PBMC+YY-101 0.01 uM • 9. PBMC+LPS (5 ug/ml)+Xiidra®100 uM • 10. PBMC+LPS (5 ug/ml)+Xiidra® 10 uM • 11. PBMC+LPS (5 ug/ml)+Xiidra® 1 uM • 12. PBMC+LPS (5 ug/ml)+Xiidra®0.1 uM • 13. PBMC+LPS (5 ug/ml)+Xiidra®0.01 uM • 14. PBMC+LPS (5 ug/ml)+Xiidra®0.001 uM • 15. PBMC+LPS (5 ug/ml)+YY-101 100 uM • 16. PBMC+LPS (5 ug/ml)+YY-101 10 uM • 17. PBMC+LPS (5 ug/ml)+YY-101 1 uM • 18. PBMC+LPS (5 ug/ml)+YY-101 0.1 uM • 19. PBMC+LPS (5 ug/ml)+YY-101 0.01 uM • 20. PBMC+LPS (5 ug/ml)+YY-101 0.001 uM • 21. PBMC+LPS (5 ug/ml)+YDE-011 100 uM • 22. PBMC+LPS (5 ug/ml)+YDE-011 10 uM • 23. PBMC+LPS (5 ug/ml)+YDE-011 1 uM • 24. PBMC+LPS (5 ug/ml)+YDE-011 0.1 uM • 25. PBMC+LPS (5 ug/ml)+YDE-011 0.01 uM • 26. PBMC+LPS (5 ug/ml)+YDE-011 0.001 uM • 27. PBMC+LPS (5 ug/ml)+YDE-043 100 uM • 28. PBMC+LPS (5 ug/ml)+YDE-043 10 uM • 29. PBMC+LPS (5 ug/ml)+YDE-043 1 uM • 30. PBMC+LPS (5 ug/ml)+YDE-043 0.1 uM • 31. PBMC+LPS (5 ug/ml)+YDE-043 0.01 uM • 32. PBMC+LPS (5 ug/ml)+YDE-043 0.001 uM
Multiplex assay was used to measure 30 cytokines and chemokines. The 1:2, 1:10 and 1:200 diluted cell supernatant and serial dilution of the standard were dispensed into a 96 well plate at 50 ul/well. Then, the pre-mixed cocktail of antibody-coated magnetic beads was dispensed at 50 ul/well and incubated at room temperature for 2 h in a horizontal orbital microplate shaker at 800±500 rpm. The beads were washed using a magnetic device to prevent loss. The biotin-antibody was dispensed in 50 ul of each well and incubated at room temperature for 1 h in a shaker at 800±500 rpm. After washing, streptavidin-PE was added at 50 ul/well and incubated at room temperature for 30 min in a shaker under the same conditions. Finally, after washing, wash buffer (100 ul/well) was added to the plate and incubated in a shaker for 2 min. The Luminex™ 200 setting were set according to the manufacturer's protocol. The data was calculated with a standard five-parameter logistic nonlinear regression analysis of the data (xPonent software 4.2, USA). The levels of cytokine/chemokine are normalized to the live cell counts (1×10^5 cells/mL) and presented as concentrations per mL (pg/mL or ng/mL).

[1] = PBMC + LPS(5 ug/ml) + test article 0.001 uM
[2] = PBMC + LPS(5 ug/ml) + test article 0.01 uM
[3] = PBMC + LPS(5 ug/ml) + test article 0.1 uM
[4] = PBMC + LPS(5 ug/ml) + test article 1 uM
[5] = PBMC + LPS(5 ug/ml) + test article 10 uM
[6] = PBMC + LPS(5 ug/ml) + test article 100 uM
[7] = PBMC + test article 0.01 uM, no LPS
[8] = PBMC + test article 0.1 uM, no LPS
[9] = PBMC + test article 1 uM, no LPS
[10] = PBMC + test article 10 uM, no LPS
[11] = PBMC + test article 100 uM, no LPS

## CC(C)C[C@H](NC(=O)CNC(=O)[C@H](CC(=O)O)NC(=O)[C@H](CCC(N)=O)NC(=O)CNC(=O)[C@@H]1C[C@@H](O)CN1)C(=O)N[C@@H](C)C(=O)NCC(=O)N1CCC[C@H]1C(=O)N[C@@H](CCCCN)C(=O)O [YY-101] (H-[Hyp]GQDGLAGPK-OH; N-terminus and C-terminus assumed)
[1]
  Fas Ligand Concentration, Mean: 30.9 pg/mL
  Fas Ligand conc/live cell, Mean: 4.9 pg/10^5
  MFI, bead Fas Ligand, Mean: 43.3
  Fas Ligand Concentration: 35.8 pg/mL and 32.7 pg/mL and 24.1 pg/mL
  Fas Ligand conc/live cell: 6.3 pg/10^5 and 4.6 pg/10^5 and 3.7 pg/10^5
  MFI, bead Fas Ligand: 50.5 and 46.0 and 33.5
[2]
  Fas Ligand Concentration, Mean: 33.8 pg/mL
  Fas Ligand conc/live cell, Mean: 5.5 pg/10^5
  MFI, bead Fas Ligand, Mean: 47.5
  Fas Ligand Concentration: 30.7 pg/mL and 39.3 pg/mL and 31.3 pg/mL
  Fas Ligand conc/live cell: 4.8 pg/10^5 and 6.6 pg/10^5 and 5.1 pg/10^5
  MFI, bead Fas Ligand: 43.0 and 55.5 and 44.0
[3]
  Fas Ligand Concentration, Mean: 29.5 pg/mL
  Fas Ligand conc/live cell, Mean: 5.1 pg/10^5
  MFI, bead Fas Ligand, Mean: 41.3
  Fas Ligand Concentration: 32.7 pg/mL and 30.7 pg/mL and 25.2 pg/mL
  Fas Ligand conc/live cell: 5.3 pg/10^5 and 5.9 pg/10^5 and 4.1 pg/10^5
  MFI, bead Fas Ligand: 46.0 and 43.0 and 35.0
[4]
  Fas Ligand Concentration, Mean: 34.5 pg/mL
  Fas Ligand conc/live cell, Mean: 5.3 pg/10^5
  MFI, bead Fas Ligand, Mean: 48.5
  Fas Ligand Concentration: 35.5 pg/mL and 36.2 pg/mL and 31.7 pg/mL
  Fas Ligand conc/live cell: 5.6 pg/10^5 and 5.1 pg/10^5 (2×)
  MFI, bead Fas Ligand: 50.0 and 51.0 and 44.5
[5]
  Fas Ligand Concentration, Mean: 46.7 pg/mL
  Fas Ligand conc/live cell, Mean: 7.3 pg/10^5
  MFI, bead Fas Ligand, Mean: 66.0
  Fas Ligand Concentration: 58.0 pg/mL and 53.7 pg/mL and 28.6 pg/mL
  Fas Ligand conc/live cell: 9.7 pg/10^5 and 8.4 pg/10^5 and 3.8 pg/10^5
  MFI, bead Fas Ligand: 82.0 and 76.0 and 40.0
[6]
  Fas Ligand Concentration, Mean: 25.4 pg/mL
  Fas Ligand conc/live cell, Mean: 4.3 pg/10^5
  MFI, bead Fas Ligand, Mean: 35.2
  Fas Ligand Concentration: 39.0 pg/mL and 16.0 pg/mL and 21.1 pg/mL
  Fas Ligand conc/live cell: 6.2 pg/10^5 and 2.6 pg/10^5 and 4.2 pg/10^5
  MFI, bead Fas Ligand: 55.0 and 21.5 and 29.0
[7]
  Fas Ligand Concentration, Mean: 7.7 pg/mL
  Fas Ligand conc/live cell, Mean: 1.5 pg/10^5
  MFI, bead Fas Ligand, Mean: 8.8
  Fas Ligand Concentration: 6.5 pg/mL and 8.8 pg/mL
  Fas Ligand conc/live cell: 1.3 pg/10^5 and 1.8 pg/10^5
  MFI, bead Fas Ligand: 7.0 and 10.5
[8]
  Fas Ligand Concentration, Mean: 7.2 pg/mL
  Fas Ligand conc/live cell, Mean: 1.4 pg/10^5
  MFI, bead Fas Ligand, Mean: 8.0
  Fas Ligand Concentration: 6.5 pg/mL and 7.8 pg/mL
  Fas Ligand conc/live cell: 1.5 pg/10^5 and 1.3 pg/10^5
  MFI, bead Fas Ligand: 7.0 and 9.0
[9]
  Fas Ligand Concentration, Mean: 7.5 pg/mL
  Fas Ligand conc/live cell, Mean: 1.4 pg/10^5
  MFI, bead Fas Ligand, Mean: 8.5
  Fas Ligand Concentration: 6.5 pg/mL and 8.5 pg/mL
  Fas Ligand conc/live cell: 1.2 pg/10^5 and 1.5 pg/10^5
  MFI, bead Fas Ligand: 7.0 and 10.0
[10]
  Fas Ligand Concentration, Mean: 13.2 pg/mL
  Fas Ligand conc/live cell, Mean: 2.1 pg/10^5
  MFI, bead Fas Ligand, Mean: 17.3
  Fas Ligand Concentration: 14.0 pg/mL and 12.4 pg/mL
  Fas Ligand conc/live cell: 2.2 pg/10^5 and 2.0 pg/10^5
  MFI, bead Fas Ligand: 18.5 and 16.0
[11]
  Fas Ligand Concentration, Mean: 6.9 pg/mL
  Fas Ligand conc/live cell, Mean: 1.0 pg/10^5
  MFI, bead Fas Ligand, Mean: 7.5
  Fas Ligand Concentration: 7.8 pg/mL and 5.9 pg/mL
  Fas Ligand conc/live cell: 1.2 pg/10^5 and 0.8 pg/10^5
  MFI, bead Fas Ligand: 9.0 and 6.0
